pEC50, pKi: −log10 of the molar value. Values joined by “and” are separate entries in the source; they are usually repeats but may differ in a detail not shown here. Equal entries are not always repeated. Where two headings read alike, the source gives them in different places. Marks after values point to notes of the source that are not given here.

What is called Emax is the greatest response seen or fitted, relative to the assay's reference. What is called pEC50 is the EC50 on a negative log10 scale, so that one unit is a factor of ten. As a reminder, the pKi is the negative decadic logarithm of the Ki, by convention in mol/L.

For data set [1] the following is noted: cited from earlier work.
Data set [2] deals with T1, human 5-HT2B receptor (Homo sapiens (Human), UniProt P41595). In words: 5-HT2B functional assay, IP1 (IPOne). The conditions noted are these: IP1 assay. Type of data set: cell-based. The protocol: (§1) 5-HT2A,2B,2C receptor-mediated Gq activation—canonical signaling pathways—[phosphoinositide hydrolysis leading to the production of inositol phosphate 1 (IP1, IPOne, Cisbio assay) or direct G-protein activation using TRUPATH technology]were measured as previously described (Porter, R. H. P., Benwell, K. R., Lamb, H., Malcolm, C. S., Allen, N. F., Revell, D. F., Adams, D. R. and Sheardown, M. J., 1999, Functional characterization of agonists at recombinant human 5-HT2a, 5HT2b and 5-HT2c receptors in CHO-K1 cells, Brit J Pharmacol 128, 13; Olsen, R. H. J., DiBerto, J. F., English, J. G. et al. TRUPATH, an open-source biosensor platform for interrogating the GPCR transducerome. […] Briefly, for the IPOne assay, for 5-HT2ARs, CHO-K1 or HEK-293 cells were incubated with test articles and 5-HT (positive control) in stimulation buffer containing LiCl. After incubation, cells were lysed and fluorescence acceptor and donor were added. FRET was measured after 60 min at room temperature using a microplate reader (Envision, Perkin Elmer). TRUPATH assays followed a similar workflow, except that different reagents were used, and LiCl was not included in the samples; the protocol was based on the report by Olsen, R. H. J. et al., cited above.
T1 sequence (P41595 whole entry, looked up): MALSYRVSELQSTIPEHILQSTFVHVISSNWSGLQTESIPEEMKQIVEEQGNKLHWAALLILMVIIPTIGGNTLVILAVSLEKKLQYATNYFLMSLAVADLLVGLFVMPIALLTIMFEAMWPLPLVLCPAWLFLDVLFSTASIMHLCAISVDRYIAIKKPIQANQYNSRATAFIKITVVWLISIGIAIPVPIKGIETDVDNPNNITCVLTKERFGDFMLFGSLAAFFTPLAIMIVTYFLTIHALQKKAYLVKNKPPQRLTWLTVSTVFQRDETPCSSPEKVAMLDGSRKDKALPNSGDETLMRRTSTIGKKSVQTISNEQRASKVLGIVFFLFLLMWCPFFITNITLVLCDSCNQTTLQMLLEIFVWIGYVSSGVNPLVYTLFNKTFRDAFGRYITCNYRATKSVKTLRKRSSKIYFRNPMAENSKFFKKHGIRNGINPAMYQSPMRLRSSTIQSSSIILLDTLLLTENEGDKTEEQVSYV

The target of data set [3] is T2, 5-HT2C receptor (Homo sapiens (Human), UniProt P28335). In words: 5-HT2C radioligand competition binding ([3H]mesulergine or [3H]LSD).
T2 sequence (P28335 whole entry, looked up): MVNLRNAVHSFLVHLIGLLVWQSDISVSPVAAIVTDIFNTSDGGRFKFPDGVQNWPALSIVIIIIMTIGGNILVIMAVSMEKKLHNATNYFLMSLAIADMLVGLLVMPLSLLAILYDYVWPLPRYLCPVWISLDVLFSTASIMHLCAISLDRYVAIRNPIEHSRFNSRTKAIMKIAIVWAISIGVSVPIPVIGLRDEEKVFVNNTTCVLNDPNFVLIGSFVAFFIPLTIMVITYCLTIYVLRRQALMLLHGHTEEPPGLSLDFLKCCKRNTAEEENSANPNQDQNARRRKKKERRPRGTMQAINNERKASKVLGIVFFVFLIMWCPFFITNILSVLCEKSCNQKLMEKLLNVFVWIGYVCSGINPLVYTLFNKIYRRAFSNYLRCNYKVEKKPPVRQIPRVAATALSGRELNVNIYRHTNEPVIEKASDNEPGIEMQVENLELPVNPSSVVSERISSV
In data set [4] the target is T2, 5-HT2C receptor. As to the kind of experiment: 5-HT2C functional assay, TRUPATH (BRET). The data set is classed as cell-based. The protocol:
as §1
In general terms: BRET reads energy transfer from a luciferase to a nearby fluorophore.

A further data set has as its system mice. In words: Head-twitch response (HTR) screening in mice. The data set is classed as in vivo, mouse. The protocol: Protocols were followed according to Canal C E, Morgan D. Head-twitch response in rodents induced by the hallucinogen 2,5-dimethoxy-4-iodoamphetamine: a comprehensive history, a re-evaluation of mechanisms, and its utility as a model. […] Mice were housed in standard laboratory cages with ad libitum access to food and water and were acclimated to the vivarium for at least one week prior to testing in a procedure room. In a typical experiment, mice were injected 3 mg/kg of test article subcutaneously. Mice were placed immediately thereafter in a clear, polycarbonate box (46×20×20 cm), and HTRs were counted at various time points after administration using hand-held tally counters. In a separate experiment, plasma and brain samples were collected at 15 and 160 minutes after administration of test compounds to measure plasma and brain concentrations. Quantification was performed using LC-MS/MS method (LLOQ, 9 nM).

In data set [5] the target is T3, 5-HT2A receptor (Homo sapiens (Human), UniProt P28223). As to the kind of experiment: 5-HT2A radioligand competition binding ([3H]LSD or [3H]ketanserin).
For data set [6], the target named is T1, human 5-HT2B receptor. In words: 5-HT2B radioligand competition binding ([3H]LSD). The conditions noted are these: read-out: 5-HT2B, Ki; radioligand [3H]LSD. (In general: Displacement assays read how much labelled ligand stays bound in the presence of the test substance.)
Data set [7] addresses T3, 5-HT2A receptor. In words: 5-HT2A functional assay, IP1 (IPOne). Type of data set: cell-based. The protocol: (§2) After incubation, cells were lysed and fluorescence acceptor and donor were added. FRET was measured after 60 min at room temperature using a microplate reader (Envision, Perkin Elmer). TRUPATH assays followed a similar workflow, except that different reagents were used, and LiCl was not included in the samples; the protocol was based on the report by Olsen, R. H. J. et al., cited above.

Data set [8] has as its target T3, 5-HT2A receptor. As to the kind of experiment: 5-HT2A functional assay, TRUPATH (BRET). Type of data set: cell-based. The protocol:
as §2

Data set [9] in a line: Plasma and brain concentrations after dosing in mice (screening). The data set is classed as in vivo, mouse. The conditions noted are these: for concentration at 160 min: sc, mice, 3 mg/kg s.c.
The nature of data set [10]: In vitro liver microsome stability (MsLM). The data set is classed as in vitro ADME. To be noted: mouse, mouse liver microsomes, 0.5 mg/mL microsomes, NADPH, read-out: MsLM, t1/2. As to the method:
(§3) In vitro stability was determined in Human (HLM), Rat (RLM), Mouse (MsLM), and dog (DLM) Liver Microsomes. All liver microsomes were purchased from a commercial supplier (e.g. XenoTech). The reaction mixture, minus NADPH, was prepared as described below. The test compound was added into the reaction mixture at a final concentration of 1 μM or co-dosed with their deuterated analog(s) at 1 μM each. The control compound, testosterone, was run simultaneously with the test compound in a separate reaction. The reaction mixture (without cofactor) was equilibrated in a shaking water bath at 37° C. for 5 minutes. The reaction was initiated by the addition of the cofactor, and the mixture was incubated in a shaking water bath at 37° C. Aliquots (150 μL) were withdrawn at 0, 5, 10, 20, 30, 60, and 120 minutes. Test compound and testosterone samples were immediately combined with 150 μL of ice-cold acetonitrile (ACN) containing 0.1% formic acid and internal standard to terminate the reaction. The samples were then mixed and centrifuged to precipitate proteins. All samples were assayed by LC-MS/MS using electrospray ionization. […] Half-lives were calculated using GraphPad software, fitting to a single-phase exponential decay equation.

A further data set deals with MAO-A (Homo sapiens (Human), UniProt P21397). As to the kind of experiment: Recombinant human MAO-A activity (stability). The data set is classed as in vitro ADME. The conditions noted are these: hrMAO 0.02 mg/mL, read-out: MAO-A, t1/2. As to the method: hrMAO-A and MAO control were purchased from XenoTech. The reaction mixture was prepared as described below. The test compound was added into the reaction mixture at a final concentration of 1 μM or co-dosed with their deuterated analog at 1 μM each. The positive control kynuramine (25 μM) was run simultaneously with the test compound in a separate reaction. The reaction mixture (without test compounds or kynuramine) was equilibrated in a shaking water bath at 37° C. for 5 minutes. The reaction was initiated by the addition of the test compound or kynuramine, and the mixture was incubated in a shaking water bath at 37° C. Aliquots (150 μL) of the test compound reaction mixture were withdrawn at 0, 5, 10, 20, 30, 60, and 120 minutes. Aliquots (150 μL) of the positive control reaction mixture were withdrawn at 0 and 30 minutes. Test compound(s) and kynuramine samples were immediately combined with 150 μL of ice-cold 100% acetonitrile containing 0.1% formic acid and internal standard (0.2 μM metoprolol) to terminate the reaction. The samples were then mixed and centrifuged to precipitate proteins. All samples were assayed by LC-MS/MS. The peak area response ratio (PARR) of analyte to internal standard at each time point was compared to the PARR at time 0 to determine the percent remaining at each time point. Half-lives were calculated using GraphPad software, fitting to a single-phase exponential decay equation.
Chain of MAO-A (P21397 whole entry, looked up): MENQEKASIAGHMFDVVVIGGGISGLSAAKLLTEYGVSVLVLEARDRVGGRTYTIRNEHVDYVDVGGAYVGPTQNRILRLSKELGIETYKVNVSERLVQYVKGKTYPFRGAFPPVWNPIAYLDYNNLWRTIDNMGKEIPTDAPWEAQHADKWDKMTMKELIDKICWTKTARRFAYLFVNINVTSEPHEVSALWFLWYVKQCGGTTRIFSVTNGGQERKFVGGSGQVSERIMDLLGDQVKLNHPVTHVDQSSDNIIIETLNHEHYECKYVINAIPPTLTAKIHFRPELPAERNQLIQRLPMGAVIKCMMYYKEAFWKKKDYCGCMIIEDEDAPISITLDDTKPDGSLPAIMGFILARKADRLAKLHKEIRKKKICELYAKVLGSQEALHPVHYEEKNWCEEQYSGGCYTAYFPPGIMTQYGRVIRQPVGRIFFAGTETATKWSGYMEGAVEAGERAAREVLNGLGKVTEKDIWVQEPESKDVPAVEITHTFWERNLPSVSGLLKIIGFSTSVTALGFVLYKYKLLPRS

Data set [11] in a line: In vitro liver microsome stability (RLM). The data set is classed as in vitro ADME. The conditions noted are these: rat, rat liver microsomes, 0.5 mg/mL microsomes, NADPH, read-out: RLM, t1/2. As to the method:
In vitro stability was determined in Human (HLM), Rat (RLM), Mouse (MsLM), and dog (DLM) Liver Microsomes. All liver microsomes were purchased from a commercial supplier (e.g. XenoTech). The reaction mixture, minus NADPH, was prepared as described below. The test compound was added into the reaction mixture at a final concentration of 1 μM or co-dosed with their deuterated analog(s) at 1 μM each. The control compound, testosterone, was run simultaneously with the test compound in a separate reaction. The reaction mixture (without cofactor) was equilibrated in a shaking water bath at 37° C. for 5 minutes. The reaction was initiated by the addition of the cofactor, and the mixture was incubated in a shaking water bath at 37° C. Aliquots (150 μL) were withdrawn at 0, 5, 10, 20, 30, 60, and 120 minutes. Test compound and testosterone samples were immediately combined with 150 μL of ice-cold acetonitrile (ACN) containing 0.1% formic acid and internal standard to terminate the reaction. The samples were then mixed and centrifuged to precipitate proteins. All samples were assayed by LC-MS/MS using electrospray ionization. The peak area response ratio (PARR) of analyte to internal standard at each time point was compared to the PARR at time 0 to determine the percent remaining at each time point. Half-lives were calculated using GraphPad software, fitting to a single-phase exponential decay equation.

Data set [12] is described as follows: In vitro liver microsome stability (HLM). The data set is classed as in vitro ADME. The conditions noted are these: human, human liver microsomes, 0.5 mg/mL microsomes, NADPH, read-out: HLM, t1/2. As to the method: as §3
A general note: Liver microsomes are a subcellular fraction often used to study metabolism.

Data set [13] in a line: In vitro liver microsome stability (DLM). The conditions noted are these: dog, dog liver microsomes, 0.5 mg/mL microsomes, NADPH, read-out: DLM, t1/2. Type of data set: in vitro ADME. The protocol: as §3

Turning to `COc1cc(OC)c(OC)cc1CCN` [2C—O], the “activity after oral administration” value in data set [1] was “inactive”.

In the case of `COc1cc(SC(F)(F)F)c(OC)cc1CCNCC1CC1` [Compound V-1, N-(cyclopropylmethyl)-2-(2,5-dimethoxy-4-((trifluoromethyl)thio)phenyl)ethan-1-amine], the Emax came to 100% on human 5-HT2B receptor [2] (constrained to 100%); 92% at 5-HT2C receptor [4] (relative to 5-HT); 31% on 5-HT2A receptor [7] (IP1 assay, relative to 5-HT); 75% on 5-HT2A receptor [8] (TRUPATH, relative to 5-HT). Moreover, the negative-log EC50 (pEC50) was under 6.00 at human 5-HT2B receptor [2] (read-out: 5-HT2B EC50); 7.34 at 5-HT2C receptor [4]; 7.46 and 7.45 at 5-HT2A receptor [7] (5-HT2A EC50, IP1 assay); 7.55 at 5-HT2A receptor [8]. The pKi was 7.13 on 5-HT2C receptor [3]; 9.01 on 5-HT2C receptor [3] (read-out: 5-HT2C, Ki, [3H]LSD, high-affinity active state); 8.00 at 5-HT2A receptor [5] (read-out: 5-HT2A, Ki, radioligand [3H]LSD); 8.00 on 5-HT2A receptor [5] (read-out: 5-HT2AR affinity (Ki)); 7.10 at human 5-HT2B receptor [6]. In the data set on mice (3 mg/kg), the “HTR (in words)” value is “elicited an HTR to a much lower extent than DOI”. Moreover, in the data set with mice (calculated using 0-30 min), the “HTR 15-25 min” value is 3 ####. In addition, in the data set on mice (mice, 3 mg/kg s.c.), the “HTR 160-170 min” value was 4.42. Further, at 5-HT2A receptor [7], the “5-HT2AR agonist activity (in words)” value is reported as “potent 5-HT2AR agonist”.

Take `[2H]C([2H])([2H])Oc1cc(SC(F)(F)F)c(OC([2H])([2H])[2H])cc1CCN` [II-10, 2-(2,5-bis(methoxy-d3)-4-((trifluoromethyl)thio)phenyl)ethan-1-amine]: the “brain/plasma ratio, 160 min” value in [9] (160 min after 3 mg/kg) is 24.4. Moreover, the concentration at 160 min in data set [9] (mouse, brain, read-out: Brain, 160 min) turned out to be 8.8 µM; in data set [9] (mouse, plasma, read-out: Plasma, 160 min) it was 0.36 µM. Moreover, in data set [9] (mouse, brain/plasma, subcutaneous, 3 mg/kg, 160 min after 3 mg/kg, read-out: brain/plasma ratio, 160 min), the Kp at 160 min lay in the range of 24 to 32. Also, the half-life at 1 μM was over 2 h in data set [10]; over 2 h on MAO-A; 0.988 h in data set [11]; over 2 h in data set [12]; over 2 h in data set [13]. In addition, the “HTR 15-25 min” value in the data set with mice (measured 0-15 min) is 25.6 ##. In addition, the negative-log Ki (pKi) was 7.46 on 5-HT2A receptor [5] and 9.27 on 5-HT2A receptor [5] (read-out: 5-HT2A, Ki, [3H]ketanserin, high-affinity active state). Moreover, the “affinity at 5-HT2A receptors (in words)” value on 5-HT2A receptor [5] was “superior affinity”. The “5-HT2AR agonist activity (in words)” value at 5-HT2A receptor [7] is “pronounced agonists”.
